Experimental data as given in ChEMBL document CHEMBL3132772 (Medchemcomm, 2014).
pKi: −log10 of the molar value.

What was measured:
Coagulation factor X = Coagulation factor X (Homo sapiens, UniProt P00742); assay: Inhibition of factor 10a (unknown origin) using S-2222 as substrate after 15 mins by spectrophotometry
Prothrombin = Prothrombin (Homo sapiens, UniProt P00734); assay: Inhibition of thrombin (unknown origin) using S-2238 as substrate after 15 mins by spectrophotometry
Trypsin = Trypsin (Homo sapiens, UniProt P07477+P07478+P35030); assay: Inhibition of trypsin (unknown origin) using S-2222 as substrate after 15 mins by spectrophotometry; format: protein assay
[1] = Metabolic stability in human plasma assessed as compound remaining at […] after 4 hrs by HPLC analysis; format: ADME, cell-free; conditions: read-out: Stability

Chain of Coagulation factor X (P00742 41-179 limits assumed): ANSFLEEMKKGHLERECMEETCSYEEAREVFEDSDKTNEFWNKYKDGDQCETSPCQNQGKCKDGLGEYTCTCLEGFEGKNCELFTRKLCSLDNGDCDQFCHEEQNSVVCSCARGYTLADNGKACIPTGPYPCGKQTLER
Chain of Coagulation factor X (P00742 235-488 limits assumed): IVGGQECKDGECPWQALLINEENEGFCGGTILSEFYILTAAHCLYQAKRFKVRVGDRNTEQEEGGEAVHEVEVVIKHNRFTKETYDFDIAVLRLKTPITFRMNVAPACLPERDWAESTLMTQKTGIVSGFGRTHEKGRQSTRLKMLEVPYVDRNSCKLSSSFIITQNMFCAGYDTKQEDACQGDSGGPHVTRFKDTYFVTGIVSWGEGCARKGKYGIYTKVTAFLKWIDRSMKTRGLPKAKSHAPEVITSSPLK

pKi (Coagulation factor X) | pKi (Prothrombin) | Ki (Trypsin) | remaining at 4 h [1] | SMILES
7.05 | 4.78 | > 100 µM | – | O=C(NC[C@H]1CN(c2ccc(N3CCC(C(=O)O)CC3)cc2)C(=O)O1)c1ccc(Cl)s1 (mixture of isomers)
7.21 | 6.45 | > 100 µM | 100% | CCOC(=O)C1CCCCN1c1ccc(N2C[C@H](CNC(=O)c3ccc(Cl)s3)OC2=O)cc1 (mixture of isomers)
7.66 | < 4.00 | > 100 µM | – | CCOC(=O)C1CCN(c2ccc(N3C[C@H](CNC(=O)c4ccc(Cl)s4)OC3=O)cc2)C(=O)C1 (mixture of isomers)
6.47 | 4.16 | > 100 µM | – | O=C(NC[C@H]1CN(c2ccc(N3CCC(C(=O)O)CC3=O)cc2)C(=O)O1)c1ccc(Cl)s1 (mixture of isomers)
6.11 | < 4.00 | > 100 µM | 95% | CCOC(=O)C1CCN(c2ccc(N3C[C@H](CNC(=O)c4ccc(Cl)s4)OC3=O)cc2)CC1 (mixture of isomers)
7.20 | < 4.00 | > 100 µM | – | CCOC(=O)C1CCCN(c2ccc(N3C[C@H](CNC(=O)c4ccc(Cl)s4)OC3=O)cc2)C1 (mixture of isomers)
5.91 | 4.75 | > 100 µM | – | O=C(NC[C@H]1CN(c2ccc(N3CCCC(C(=O)O)C3)cc2)C(=O)O1)c1ccc(Cl)s1 (mixture of isomers)
